pIC50: −log10 of the molar value. *1 amine or outer side, *2 acyl side, *3 side chain or, on linkers, in order; H or OH if unused. Where a SMILES comes first, the peptide text is derived from it. Bridges are numbered along the chain shown (N, C = ends). [ ]: non-standard residue; d: D form. ξ: configuration not given here. Trp(βS-Me) = C[C@@H](c1c[nH]c2ccccc12)[C@H](N)C(=O)O; Phe(3,4,5-F3) = N[C@@H](Cc1cc(F)c(F)c(F)c1)C(=O)O; Phe(3,4-F2) = N[C@@H](Cc1ccc(F)c(F)c1)C(=O)O; NMePhe(4-F) = CN[C@@H](Cc1ccc(F)cc1)C(=O)O; Phe(4-F) = N[C@@H](Cc1ccc(F)cc1)C(=O)O; d(cisHyp) = O=C(O)[C@H]1C[C@@H](O)CN1; Hyp = O=C(O)[C@@H]1C[C@@H](O)CN1; NMeF = CN[C@@H](Cc1ccccc1)C(=O)O; X1 = O=C([C@H]1COCCN1[*:1])[*:2]; dHyp = O=C(O)[C@H]1C[C@H](O)CN1; NMehSer = CN[C@@H](CCO)C(=O)O; NMeNle = CCCC[C@H](NC)C(=O)O; Pip = O=C(O)[C@@H]1CCCCN1; dPip = O=C(O)[C@H]1CCCCN1; hSer = N[C@@H](CCO)C(=O)O; NMeA = CN[C@@H](C)C(=O)O; Orn = NCCC[C@H](N)C(=O)O; dThz = O=C(O)[C@H]1CSCN1; Dab = NCC[C@H](N)C(=O)O; Dap = NC[C@H](N)C(=O)O; ξC = NC(CS)C(=O)O
Target: T1, Human PD-L1/PD-1 (Homo sapiens, UniProt Q9NZQ7)
T1 construct: TVMV protease cleavage site (C); made in house; host or cells: HEK293T cells
T1 sequence (Q9NZQ7 with tags, fused parts or gaps): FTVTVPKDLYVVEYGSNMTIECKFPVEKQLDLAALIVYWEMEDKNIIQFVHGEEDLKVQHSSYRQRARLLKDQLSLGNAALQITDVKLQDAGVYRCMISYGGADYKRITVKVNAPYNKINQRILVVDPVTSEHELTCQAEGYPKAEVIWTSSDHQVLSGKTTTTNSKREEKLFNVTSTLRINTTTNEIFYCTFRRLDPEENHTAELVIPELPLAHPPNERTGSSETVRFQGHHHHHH
Experiment: HTRF Human PD-L1/PD-1 binding assay (PD-1-Ig/PD-L1-His)
Conditions: PD-L1-His 10 nM, PD-1-Ig 20 nM; class symbol; read-out: HTRF Human PD-L1/PD-1 Binding Assay IC50 Range
How it was run: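 Compound preincubated 15 min with PD-L1-His (10 nM final), then PD-1-Ig (20 nM final) added for 15 min in dPBS with 0.1% BSA and 0.05% Tween-20. Detection by Eu-cryptate anti-Ig (1 nM) and APC anti-His (20 nM) after 30 min; 665/620 nm HTRF ratio. Proteins expressed in HEK293T.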

| pIC50 | SMILES |
| --- | --- |
| 8.00 to 9.00 | CCCC[C@H]1C(=O)N2C[C@@H](O)C[C@@H]2C(=O)N[C@@H](CC(=O)O)C(=O)N[C@@H](C(C)C)C(=O)N(C)[C@@H](Cc2ccccc2)C(=O)N[C@@H](CCC(=O)O)C(=O)N2CCOC[C@@H]2C(=O)N[C@@H](Cc2c[nH]c3ccccc23)C(=O)N[C@@H](Cc2ccc(O)cc2)C(=O)N[C@@H](CCCN)C(=O)N[C@H](C(=O)NCC(N)=O)CSCC(=O)N[C@@H](Cc2ccc(F)c(F)c2)C(=O)N(C)[C@@H](Cc2ccccc2)C(=O)N1C [Example 9279] ({CH2CO}-[Phe(3,4-F2)][NMeF][NMeNle][dHyp]DV[NMeF]E[X1]WY[Orn]CG-NH2; thioether N-13) |
| 8.00 to 9.00 | CCCC[C@H]1C(=O)N2C[C@@H](O)C[C@@H]2C(=O)N[C@@H](CC(=O)O)C(=O)N[C@@H](C(C)C)C(=O)N(C)[C@@H](Cc2ccccc2)C(=O)N[C@@H](CCC(=O)O)C(=O)N2CCCC[C@@H]2C(=O)N[C@@H](Cc2c[nH]c3ccccc23)C(=O)N[C@@H](Cc2ccc(O)cc2)C(=O)N[C@@H](CCN)C(=O)N[C@H](C(=O)NCC(N)=O)CSCC(=O)N[C@@H](Cc2cc(F)c(F)c(F)c2)C(=O)N(C)[C@@H](Cc2ccc(F)cc2)C(=O)N1C [Example 10566] ({CH2CO}-[Phe(3,4,5-F3)][NMePhe(4-F)][NMeNle][dHyp]DV[NMeF]E[dPip]WY[Dab]CG-NH2; thioether N-13) |
| 7.00 to 8.00 | CCCC[C@H]1C(=O)N(C)[C@@H](CCCC)C(=O)N[C@@H](CCCN)C(=O)N[C@H](C(=O)NCC(N)=O)CSCC(=O)N[C@@H](Cc2ccc(O)cc2)C(=O)N2CCCC[C@H]2C(=O)N[C@@H](CC(=O)O)C(=O)N2CCC[C@H]2C(=O)N[C@@H](Cc2c[nH]cn2)C(=O)N[C@@H](CCC(=O)O)C(=O)N2C[C@H](O)C[C@H]2C(=O)N[C@@H](Cc2c[nH]c3ccccc23)C(=O)N[C@@H](CO)C(=O)N[C@@H](Cc2c[nH]c3ccccc23)C(=O)N1C [Example 1536] ({CH2CO}-Y[Pip]DPHE[Hyp]WSW[NMeNle][NMeNle][Orn]CG-NH2; thioether N-14) |
| 8.00 to 9.00 | CCCC[C@H]1C(=O)N2C[C@H](O)C[C@@H]2C(=O)N[C@@H](CC(=O)O)C(=O)N[C@@H](C(C)C)C(=O)N(C)[C@@H](Cc2ccccc2)C(=O)N[C@@H](Cc2ccc(O)cc2)C(=O)N2C[C@H](O)C[C@@H]2C(=O)N[C@@H](Cc2c[nH]c3ccccc23)C(=O)N[C@@H](Cc2ccc(O)cc2)C(=O)N[C@@H](CC(N)=O)C(=O)N[C@H](C(=O)NCC(N)=O)CSCC(=O)N[C@@H](Cc2cc(F)c(F)c(F)c2)C(=O)N(C)[C@@H](Cc2ccccc2)C(=O)N1C [Example 9329] ({CH2CO}-[Phe(3,4,5-F3)][NMeF][NMeNle][d(cisHyp)]DV[NMeF]Y[d(cisHyp)]WYNCG-NH2; thioether N-13) |
| 7.00 to 8.00 | CCCC[C@H]1C(=O)N(C)[C@@H](CCCC)C(=O)N[C@@H](CCC(=O)O)C(=O)N[C@H](C(=O)NCC(N)=O)CSCC(=O)N[C@@H](Cc2ccc(OC)cc2)C(=O)N(C)[C@@H](C)C(=O)N[C@@H](CC(=O)O)C(=O)N2CCC[C@H]2C(=O)N[C@@H](CN)C(=O)N[C@@H](CCC(=O)O)C(=O)N2C[C@H](O)C[C@H]2C(=O)N[C@@H](Cc2c[nH]c3ccccc23)C(=O)N[C@@H](CC(=O)O)C(=O)N[C@@H](Cc2c[nH]c3ccccc23)C(=O)N1C [Example 7133] ({CH2CO}-Y(Me)[NMeA]DP[Dap]E[Hyp]WDW[NMeNle][NMeNle]ECG-NH2; thioether N-14) |
| 5.00 to 6.00 | CCCC[C@H]1C(=O)N[C@@H](CC(N)=O)C(=O)N2CCC[C@H]2C(=O)N[C@@H](CO)C(=O)N[C@@H](CCO)C(=O)N2C[C@H](O)C[C@H]2C(=O)N[C@@H](Cc2c[nH]c3ccccc23)C(=O)N[C@@H](CCN)C(=O)N[C@@H](Cc2c[nH]c3ccccc23)C(=O)N(C)[C@@H](C)C(=O)N(C)[C@@H](C)C(=O)N[C@@H](CCCNC(=N)N)C(=O)NC(C(=O)NCC(N)=O)CSCC(=O)N[C@@H](Cc2ccc(O)cc2)C(=O)N1C (stereo partly drawn) [Example 10200] ({CH2CO}-Y[NMeNle]NPS[hSer][Hyp]W[Dab]W[NMeA][NMeA]R[ξC]G-NH2; thioether N-14) |
| 6.00 to 7.00 | CCCC[C@H]1C(=O)N2CCC[C@@H]2C(=O)N[C@@H](CC(=O)O)C(=O)N[C@@H](C(C)C)C(=O)N(C)[C@@H](CCOC)C(=O)N[C@@H](Cc2ccc(O)cc2)C(=O)N2CCC[C@@H]2C(=O)N[C@@H](Cc2c[nH]c3ccccc23)C(=O)N[C@@H](Cc2ccc(O)cc2)C(=O)N[C@@H](CC(C)C)C(=O)N[C@H](C(=O)NCC(N)=O)CSCC(=O)N[C@@H](Cc2ccc(F)cc2)C(=O)N(C)[C@@H](Cc2ccccc2)C(=O)N1C [Example 9219] ({CH2CO}-[Phe(4-F)][NMeF][NMeNle][dP]DV[NMehSer](Me)Y[dP]WYLCG-NH2; thioether N-13) |
| 7.00 to 8.00 | CCCC[C@H]1C(=O)N2CSC[C@@H]2C(=O)N[C@@H](CC(=O)O)C(=O)N[C@@H](C)C(=O)N(C)[C@@H](Cc2ccccc2)C(=O)N[C@@H](Cc2ccc(O)cc2)C(=O)N2CSC[C@@H]2C(=O)N[C@@H](Cc2c[nH]c3ccccc23)C(=O)N[C@@H](Cc2ccc(O)cc2)C(=O)N[C@@H](CC(C)C)C(=O)N[C@H](C(=O)NCC(N)=O)CSCC(=O)N[C@@H](Cc2ccccc2)C(=O)N(C)[C@@H](Cc2ccccc2)C(=O)N1C [Example 10078] ({CH2CO}-F[NMeF][NMeNle][dThz]DA[NMeF]Y[dThz]WYLCG-NH2; thioether N-13) |
| 8.00 to 9.00 | COCC[C@H]1C(=O)N2C[C@@H](O)C[C@@H]2C(=O)N[C@@H](CC(=O)O)C(=O)N[C@@H](C(C)C)C(=O)N(C)[C@@H](Cc2ccccc2)C(=O)N[C@@H](CCC(=O)O)C(=O)N2CCOC[C@@H]2C(=O)N[C@@H](Cc2c[nH]c3ccccc23)C(=O)N[C@@H](Cc2ccc(O)cc2)C(=O)N[C@@H](CCCN)C(=O)N[C@H](C(=O)NCC(N)=O)CSCC(=O)N[C@@H](Cc2cc(F)c(F)c(F)c2)C(=O)N(C)[C@@H](Cc2ccccc2)C(=O)N1C [Example 9268] ({CH2CO}-[Phe(3,4,5-F3)][NMeF][NMehSer](Me)[dHyp]DV[NMeF]E[X1]WY[Orn]CG-NH2; thioether N-13) |
| 8.00 to 9.00 | CCCC[C@H]1C(=O)N(C)[C@@H](CCCC)C(=O)N[C@@H](CCC(=O)O)C(=O)N[C@H](C(=O)NCC(N)=O)CSCC(=O)N[C@@H](Cc2ccc(OC)cc2)C(=O)N(C)[C@@H](C)C(=O)N[C@@H](CCN)C(=O)N2CCC[C@H]2C(=O)N[C@@H](Cc2cnc[nH]2)C(=O)N[C@@H](CCCCN)C(=O)N2C[C@H](O)C[C@H]2C(=O)N[C@@H](Cc2c[nH]c3ccccc23)C(=O)N[C@@H](CCN)C(=O)N[C@@H](Cc2c[nH]c3ccccc23)C(=O)N1C [Example 7120] ({CH2CO}-Y(Me)[NMeA][Dab]PHK[Hyp]W[Dab]W[NMeNle][NMeNle]ECG-NH2; thioether N-14) |
| 8.00 to 9.00 | CCCC[C@H]1C(=O)N(C)[C@@H](CCCC)C(=O)N[C@@H](CCC(=O)O)C(=O)N[C@H](C(=O)NCC(N)=O)CSCC(=O)N[C@@H](Cc2ccc(OC)cc2)C(=O)N(C)[C@@H](C)C(=O)N[C@@H](CC(=O)O)C(=O)N2CCC[C@H]2C(=O)N[C@@H](Cc2cnc[nH]2)C(=O)N[C@@H](CCCCN)C(=O)N2C[C@H](O)C[C@H]2C(=O)N[C@@H](Cc2c[nH]c3ccccc23)C(=O)N[C@@H](CCN)C(=O)N[C@@H](Cc2c[nH]c3ccccc23)C(=O)N1C [Example 7119] ({CH2CO}-Y(Me)[NMeA]DPHK[Hyp]W[Dab]W[NMeNle][NMeNle]ECG-NH2; thioether N-14) |
| 8.00 to 9.00 | CCCC[C@H]1C(=O)N(C)[C@@H](CCCC)C(=O)N[C@@H](CCCNC(=N)N)C(=O)N[C@H](C(=O)NCC(N)=O)CSCC(=O)N[C@@H](Cc2ccc(O)cc2)C(=O)N(C)[C@@H](C)C(=O)N[C@@H](CC(N)=O)C(=O)N2CCC[C@H]2C(=O)N[C@@H](CC(N)=O)C(=O)N[C@@H](CC(C)C)C(=O)N2C[C@H](O)C[C@H]2C(=O)N[C@@H]([C@@H](C)c2c[nH]c3ccccc23)C(=O)N[C@@H](CO)C(=O)N[C@@H](Cc2c[nH]c3ccccc23)C(=O)N1C [Example 10534] ({CH2CO}-Y[NMeA]NPNL[Hyp][Trp(βS-Me)]SW[NMeNle][NMeNle]RCG-NH2; thioether N-14) |
| 8.00 to 9.00 | CCCC[C@H]1C(=O)N2C[C@H](O)C[C@@H]2C(=O)N[C@@H](CC(=O)O)C(=O)N[C@@H](C(C)C)C(=O)N(C)[C@@H](Cc2ccccc2)C(=O)N[C@@H](CC(=O)O)C(=O)N2CSC[C@@H]2C(=O)N[C@@H](Cc2c[nH]c3ccccc23)C(=O)N[C@@H](Cc2ccc(O)cc2)C(=O)N[C@@H](CC(C)C)C(=O)N[C@H](C(=O)NCC(N)=O)CSCC(=O)N[C@@H](Cc2cc(F)c(F)c(F)c2)C(=O)N(C)[C@@H](Cc2ccccc2)C(=O)N1C [Example 10149] ({CH2CO}-[Phe(3,4,5-F3)][NMeF][NMeNle][d(cisHyp)]DV[NMeF]D[dThz]WYLCG-NH2; thioether N-13) |
| 8.00 to 9.00 | CCCC[C@H]1C(=O)N2C[C@H](O)C[C@@H]2C(=O)N[C@@H](CC(=O)O)C(=O)N[C@@H](C(C)C)C(=O)N(C)[C@@H](Cc2ccccc2)C(=O)N[C@@H](CC(=O)O)C(=O)N2C[C@H](O)C[C@@H]2C(=O)N[C@@H](Cc2c[nH]c3ccccc23)C(=O)N[C@@H](Cc2ccc(O)cc2)C(=O)N[C@@H](CCCN)C(=O)N[C@H](C(=O)NCC(N)=O)CSCC(=O)N[C@@H](Cc2cc(F)c(F)c(F)c2)C(=O)N(C)[C@@H](Cc2ccccc2)C(=O)N1C [Example 9346] ({CH2CO}-[Phe(3,4,5-F3)][NMeF][NMeNle][d(cisHyp)]DV[NMeF]D[d(cisHyp)]WY[Orn]CG-NH2; thioether N-13) |

Same assay, conditions: PD-L1-His 10 nM, PD-1-Ig 20 nM; read-out: HTRF Human PD-L1/PD-1 Binding Assay IC50

| pIC50 | SMILES |
| --- | --- |
| 7.93 | CCCC[C@H]1C(=O)N2C[C@H](O)C[C@@H]2C(=O)N[C@@H](CC(=O)O)C(=O)N[C@@H](C(C)C)C(=O)N(C)[C@@H](Cc2ccccc2)C(=O)N[C@@H](CC(N)=O)C(=O)N2C[C@H](O)C[C@@H]2C(=O)N[C@@H](Cc2c[nH]c3ccccc23)C(=O)N[C@@H](Cc2ccc(O)cc2)C(=O)N[C@@H](CCCN)C(=O)N[C@H](C(=O)NCC(N)=O)CSCC(=O)N[C@@H](Cc2ccc(F)c(F)c2)C(=O)N(C)[C@@H](Cc2ccccc2)C(=O)N1C [Example 9304] |
